Experimental findings from patent publication US8722849B2, “Polypeptides” (Novo Nordisk A/S, priority 2011, dated 2014) are described below.

The structures appear in SMILES notation. Values after ≈ are worked out from the molar mass of the structure shown. Read-outs that look alike come from different tables or passages of the source. Starred links: 1 amine or outer side, 2 acyl side, 3 side chain; linkers in the order of their positions; H or OH if unused. Positions of bridges follow the written chain, without caps; N, C: chain ends. Residues, ends and D or L forms follow the SMILES beside them. *: point of attachment. C20 diacid = O=C(O)CCCCCCCCCCCCCCCCCCC(=O)*; γGlu = O=C(O)[C@H](CCC(=O)[*:2])N[*:1]

A short description of series [1]: Assay (III) ThT fibrillation assay for physical stability. Conditions: ThT fibrillation assay. The series is classed as physicochemical. A digest of the protocol:
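Freshly prepared formulations, pH-adjusted, with 1 μM ThT; four or eight replicates incubated at 37 °C under 960 rpm orbital shaking. Fluorescence (ex 444/em 485 nm) read every 20 min; […]. Peptide concentration measured by RP-HPLC before and after the run.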

The nature of series [2]: Assay (IV) determination of solubility. The series is classed as physicochemical. Put shortly:
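Solubility was profiled across pH 3.0–8.0 after 18 hours at room temperature: a ~500 nmol/ml aqueous polypeptide solution was diluted 1:1 into 100 mM glycylglycine or bistrispropane buffers. After centrifugation, HPLC gave the dissolved concentration.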

Series [3] has as its target T1, human calcitonin receptor (Homo sapiens, UniProt P30988).
T1 construct: expressed in transfected cells; host or cells: BHK570
T1 sequence (P30988 25-474): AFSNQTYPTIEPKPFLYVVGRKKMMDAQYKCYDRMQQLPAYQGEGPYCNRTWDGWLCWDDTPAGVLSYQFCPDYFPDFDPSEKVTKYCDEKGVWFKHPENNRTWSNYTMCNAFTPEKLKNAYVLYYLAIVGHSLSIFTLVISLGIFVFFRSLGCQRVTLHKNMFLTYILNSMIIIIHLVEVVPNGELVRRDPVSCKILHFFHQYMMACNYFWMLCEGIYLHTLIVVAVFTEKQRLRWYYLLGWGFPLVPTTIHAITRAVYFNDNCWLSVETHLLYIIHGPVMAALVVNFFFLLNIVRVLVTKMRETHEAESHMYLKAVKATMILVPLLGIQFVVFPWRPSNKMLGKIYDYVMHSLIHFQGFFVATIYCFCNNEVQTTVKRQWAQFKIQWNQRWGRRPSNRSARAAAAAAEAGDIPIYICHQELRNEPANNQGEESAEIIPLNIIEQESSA
Kind of series: Assay (II)a functional CRE-luciferase assay, human calcitonin receptor. The series is classed as cell-based.

Series [4] has as its target T2, human amylin receptor (amylin 3(a) receptor: human calcitonin receptor + RAMP-3) (Homo sapiens, UniProt O60896+P30988).
T2 construct: expressed in transfected cells; host or cells: BHK570
T2 sequence (P30988 25-474): T1 sequence (P30988 25-474)
T2 sequence (O60896 24-148 partner): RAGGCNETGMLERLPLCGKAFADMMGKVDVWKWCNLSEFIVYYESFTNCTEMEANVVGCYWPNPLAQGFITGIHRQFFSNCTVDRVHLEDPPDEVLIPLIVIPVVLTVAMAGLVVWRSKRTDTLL
The experiment in a line: Assay (II)a functional CRE-luciferase assay, human amylin receptor. The series is classed as cell-based.

[5] abbreviates: bistrispropane buffer, pH 6, pH 6.0, read-out: Solubility pH 6.0.
The mark [6] stands for this setting: bistrispropane buffer, pH 6.5, pH 6.5, read-out: Solubility pH 6.5.
Setting [7] is: bistrispropane buffer, pH 7, pH 7.0, read-out: Solubility pH 7.0.
[8] abbreviates: bistrispropane buffer, pH 7.5, pH 7.5, read-out: Solubility pH 7.5.
Setting [9] is: bistrispropane buffer, pH 8, pH 8.0, read-out: Solubility pH 8.0.
Where [10] appears, read: glycylglycine buffer, pH 3, pH 3.0, read-out: Solubility pH 3.0.
Setting [11] is: glycylglycine buffer, pH 4, pH 4.0, read-out: Solubility pH 4.0.
[12] abbreviates: glycylglycine buffer, pH 5, pH 5.0, read-out: Solubility pH 5.0.
[13] abbreviates: glycylglycine buffer, pH 4, pH 4.0, 18 hours at room temperature, Table 2, read-out: Solubility pH 4.0.
Setting [14] is: Table 7, human calcitonin (CTa) receptor.
[15] abbreviates: Table 2, BHK amylin 3(a)-receptor/CRE-luc cells.

Consider `CC[C@H](C)[C@H](NC(=O)[C@@H]1CCCN1C(=O)CNC(=O)[C@H](Cc1ccccc1)NC(=O)[C@H](CC(N)=O)NC(=O)[C@H](CC(N)=O)NC(=O)[C@H](CO)NC(=O)[C@H](CO)NC(=O)[C@H](Cc1c[nH]cn1)NC(=O)[C@@H](NC(=O)[C@H](CC(C)C)NC(=O)[C@H](Cc1ccccc1)NC(=O)[C@H](CC(N)=O)NC(=O)[C@H](C)NC(=O)[C@H](CC(C)C)NC(=O)[C@H](CCCNC(=N)N)NC(=O)[C@H](CCC(N)=O)NC(=O)[C@@H](NC(=O)[C@H](C)NC(=O)[C@@H]1CSSC[C@H](NC(=O)[C@H](CCC(=O)O)NC(=O)[C@H](CCCNC(=N)N)NC(=O)[C@H](CCC(=O)O)NC(=O)[C@H](CCC(=O)O)NC(=O)CCCCCCCCCCCCCCCCCCC(=O)O)C(=O)N[C@@H](CC(N)=O)C(=O)N[C@@H]([C@@H](C)O)C(=O)N[C@@H](C)C(=O)N[C@@H]([C@@H](C)O)C(=O)N1)[C@@H](C)O)C(C)C)C(=O)N[C@@H](CC(C)C)C(=O)N1CCC[C@H]1C(=O)N1CCC[C@H]1C(=O)N[C@H](C(=O)N[C@@H](CC(N)=O)C(=O)N[C@H](C(=O)NCC(=O)N[C@@H](CO)C(=O)N[C@@H](CC(N)=O)C(=O)N[C@H](C(=O)N1CCC[C@H]1C(N)=O)[C@@H](C)O)C(C)C)[C@@H](C)O` [Example 121, N-alpha-(19-carboxynonadecanoyl)-Glu-Glu-Arg-[Glu1,Pro37]-pramlintide] ({C20 diacid}-EERECNTATCATQRLANFLVHSSNNFGPILPPTNVGSNTP-NH2; disulfide 5-10 (inferred); C-terminus assumed), for which the “ThT pH 4.0 lag time (h)” value in series [1] was 0.3 h. For the same compound, the solubility at 18 h was 155 µM (≈ 717 µg/mL) in series [2] (setting [5]); 127 µM (≈ 587 µg/mL) in series [2] (setting [6]); 54 µM (≈ 250 µg/mL) in series [2] (setting [7]); 157 µM (≈ 726 µg/mL) in series [2] (setting [8]); 117 µM (≈ 541 µg/mL) in series [2] (setting [9]); > 200 µM in series [2] (setting [10]). The solubility at 18 h in series [2] (setting [11]) and in series [2] (setting [12]) was > 200 µM throughout. Besides, the EC50 in series [3] (Table 11, read-out: CTa receptor human EC50) is 0.0615 nM; in series [4] (Table 11) it was 0.045 nM.

Take `CC[C@H](C)[C@H](NC(=O)[C@@H]1CCCN1C(=O)CNC(=O)[C@H](Cc1ccccc1)NC(=O)[C@H](CC(N)=O)NC(=O)[C@H](CC(N)=O)NC(=O)[C@H](CO)NC(=O)[C@H](CO)NC(=O)[C@H](Cc1c[nH]cn1)NC(=O)[C@H](CCCNC(=N)N)NC(=O)[C@H](CC(C)C)NC(=O)[C@H](Cc1ccccc1)NC(=O)[C@H](CCC(=O)O)NC(=O)[C@H](C)NC(=O)[C@H](CC(C)C)NC(=O)[C@H](CCCNC(=N)N)NC(=O)[C@H](CCC(N)=O)NC(=O)[C@@H](NC(=O)[C@H](C)NC(=O)[C@@H]1CSSC[C@H](NC(=O)[C@H](CCCCN)NC(=O)[C@H](Cc2c[nH]cn2)NC(=O)CC[C@H](NC(=O)CCCCCCCCCCCCCCCCCCC(=O)O)C(=O)O)C(=O)N[C@@H](CC(N)=O)C(=O)N[C@@H]([C@@H](C)O)C(=O)N[C@@H](C)C(=O)N[C@@H]([C@@H](C)O)C(=O)N1)[C@@H](C)O)C(=O)N[C@@H](CC(C)C)C(=O)N1CCC[C@H]1C(=O)N1CCC[C@H]1C(=O)N[C@H](C(=O)N[C@@H](CC(N)=O)C(=O)N[C@H](C(=O)NCC(=O)N[C@@H](CO)C(=O)N[C@@H](Cc1c[nH]cn1)C(=O)N[C@H](C(=O)N[C@@H](Cc1ccc(O)cc1)C(N)=O)[C@@H](C)O)C(C)C)[C@@H](C)O` [Example 68, N-alpha-[(S)-4-Carboxy-4-(19-carboxynonadecanoylamino)butyryl]-His-[Glu14,Arg17,His35]-pramlintide] ({C20 diacid-γGlu}-HKCNTATCATQRLAEFLRHSSNNFGPILPPTNVGSHTY-NH2; disulfide 3-8 (inferred); C-terminus assumed): the “ThT pH 4.0 lag time” value in series [1] is reported as >45 h. Further, the “ThT pH 4.0 lag time (h)” value in series [1] is given as >45 h. In addition, the solubility at 18 h in series [2] (setting [5]) was > 200 µM; in series [2] (setting [6]), 170 µM (≈ 788 µg/mL); in series [2] (setting [7]), 17 µM (≈ 78.8 µg/mL); in series [2] (setting [8]), 6 µM (≈ 27.8 µg/mL); in series [2] (setting [9]) it was 7 µM (≈ 32.4 µg/mL); in series [2] (setting [10]) it was > 200 µM. The solubility at 18 h in series [2] (setting [13]), in series [2] (setting [11]) and in series [2] (setting [12]) was > 200 µM throughout. Moreover, the figures for the EC50 in series [3] (setting [14]) and in series [4] (setting [15]) were 0.43 nM and 0.0935 nM, respectively.

Take `CC[C@H](C)[C@H](NC(=O)[C@@H]1CCCN1C(=O)CNC(=O)[C@H](Cc1ccccc1)NC(=O)[C@H](CC(N)=O)NC(=O)[C@H](CCC(N)=O)NC(=O)[C@H](CO)NC(=O)[C@H](CO)NC(=O)[C@H](Cc1c[nH]cn1)NC(=O)[C@@H](NC(=O)[C@H](CC(C)C)NC(=O)[C@H](Cc1ccccc1)NC(=O)[C@H](CCC(=O)O)NC(=O)[C@H](C)NC(=O)[C@H](CC(C)C)NC(=O)[C@H](CCCNC(=N)N)NC(=O)[C@H](CCC(N)=O)NC(=O)[C@@H](NC(=O)[C@H](C)NC(=O)[C@@H]1CSSC[C@H](NC(=O)[C@H](CCCCN)NC(=O)CC[C@H](NC(=O)CCCCCCCCCCCCCCCCCCC(=O)O)C(=O)O)C(=O)N[C@@H](CC(N)=O)C(=O)N[C@@H]([C@@H](C)O)C(=O)N[C@@H](C)C(=O)N[C@@H]([C@@H](C)O)C(=O)N1)[C@@H](C)O)C(C)C)C(=O)N[C@@H](CC(C)C)C(=O)N1CCC[C@H]1C(=O)N1CCC[C@H]1C(=O)N[C@H](C(=O)N[C@@H](CC(N)=O)C(=O)N[C@H](C(=O)NCC(=O)N[C@@H](CO)C(=O)N[C@@H](CCC(N)=O)C(=O)N[C@H](C(=O)N1CCC[C@H]1C(N)=O)[C@@H](C)O)C(C)C)[C@@H](C)O` [Example 139, N-alpha-[(S)-4-Carboxy-4-(19-carboxynonadecanoylamino)butyryl]-[Glu14,Gln21,Gln35,Pro37]-pramlintide] ({C20 diacid-γGlu}-KCNTATCATQRLAEFLVHSSQNFGPILPPTNVGSQTP-NH2; disulfide 2-7 (inferred)): the “ThT pH 4.0 lag time (h)” value in series [1] is reported as 23.6 h. Further, the solubility at 18 h was > 200 µM in series [2] (setting [5]); > 200 µM in series [2] (setting [6]); > 200 µM in series [2] (bistrispropane buffer, pH 7, pH 7.0, 18 hours at room temperature, Table 3, read-out: Solubility pH 7.0); > 200 µM in series [2] (setting [7]); > 200 µM in series [2] (setting [8]); > 200 µM in series [2] (setting [9]). The solubility at 18 h in series [2] (setting [10]), in series [2] (setting [13]), in series [2] (setting [11]) and in series [2] (setting [12]) was > 200 µM throughout. Besides, the EC50 in series [3] (setting [14]) was 0.0585 nM; in series [4] (setting [15]) it was 0.107 nM.
